Test results: US7074789B2, “Kinase inhibitors” (Amgen Inc., priority 1999, dated 2006)
pIC50: −log10 of the molar value.

Legend:
Format in all cases: biochemical
[1] = target: T1, Lck (Homo sapiens, UniProt P06239); assay: Kinase inhibition assay (33P transfer), Lck; settings: Table 3, class symbols; read-out: Lck-1
T1 construct: Kinases are expressed as either kinase domains or full length constructs; made in house
Method in brief: (§1)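 GST/His-tagged kinase (domain or full length; E. coli or baculovirus) + [33P]ATP on plates coated with poly(Glu,Tyr) 4:1 or poly(Arg,Ser) 3:1; incubate, wash 0.5% H3PO4, add scintillant, count.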

[2] = target: T2, Zap-70 (Homo sapiens, UniProt P43403); assay: Kinase inhibition assay (33P transfer), Zap-70; settings: Table 3, class symbols; read-out: Zap-1
T2 construct: Kinases are expressed as either kinase domains or full length constructs; made in house
T2 sequence (P43403 1-619): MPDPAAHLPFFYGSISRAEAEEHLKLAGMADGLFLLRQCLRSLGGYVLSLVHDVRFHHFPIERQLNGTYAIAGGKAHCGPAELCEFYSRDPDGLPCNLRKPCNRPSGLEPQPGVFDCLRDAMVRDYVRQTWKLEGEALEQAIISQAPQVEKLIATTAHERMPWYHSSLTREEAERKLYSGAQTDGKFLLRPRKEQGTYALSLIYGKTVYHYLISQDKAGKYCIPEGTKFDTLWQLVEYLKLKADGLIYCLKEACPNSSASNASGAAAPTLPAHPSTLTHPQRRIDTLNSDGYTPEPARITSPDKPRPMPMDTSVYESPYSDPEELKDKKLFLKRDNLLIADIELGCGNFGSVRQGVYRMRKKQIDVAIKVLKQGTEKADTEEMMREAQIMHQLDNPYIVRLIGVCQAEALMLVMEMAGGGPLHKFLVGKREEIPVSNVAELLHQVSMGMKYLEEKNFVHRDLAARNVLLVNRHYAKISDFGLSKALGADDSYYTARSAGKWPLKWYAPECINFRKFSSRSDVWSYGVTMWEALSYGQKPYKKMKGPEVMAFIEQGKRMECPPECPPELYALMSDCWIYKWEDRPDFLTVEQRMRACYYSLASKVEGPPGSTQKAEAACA
Method in brief: as §1

[3] = target: T3, Itk (Homo sapiens, UniProt Q08881); assay: Kinase inhibition assay (33P transfer), Itk; settings: Table 3, class symbols; read-out: Itk-1
T3 construct: Kinases are expressed as either kinase domains or full length constructs; made in house
T3 sequence (Q08881 1-620): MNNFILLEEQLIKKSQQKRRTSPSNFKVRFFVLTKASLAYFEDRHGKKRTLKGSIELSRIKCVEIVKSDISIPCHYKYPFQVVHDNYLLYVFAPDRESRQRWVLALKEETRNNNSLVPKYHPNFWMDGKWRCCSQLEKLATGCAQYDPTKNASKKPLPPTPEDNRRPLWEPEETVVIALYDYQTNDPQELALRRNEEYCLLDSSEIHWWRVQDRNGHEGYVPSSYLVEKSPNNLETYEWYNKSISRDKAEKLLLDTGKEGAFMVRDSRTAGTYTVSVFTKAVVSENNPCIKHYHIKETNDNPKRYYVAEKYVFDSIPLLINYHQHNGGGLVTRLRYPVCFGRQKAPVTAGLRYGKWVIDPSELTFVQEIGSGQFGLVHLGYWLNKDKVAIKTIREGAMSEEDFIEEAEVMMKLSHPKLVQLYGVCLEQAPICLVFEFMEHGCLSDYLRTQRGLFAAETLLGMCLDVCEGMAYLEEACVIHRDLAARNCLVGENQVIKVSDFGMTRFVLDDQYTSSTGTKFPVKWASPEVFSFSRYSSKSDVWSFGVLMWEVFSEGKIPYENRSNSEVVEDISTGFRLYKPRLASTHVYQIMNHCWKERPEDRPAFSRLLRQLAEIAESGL
Method in brief: (§2)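 Using immobilised substrate copolymers (poly(Glu,Tyr) 4:1; poly(Arg,Ser) 3:1) and [33P]ATP, purified fusion kinases were allowed to react; plates were then rinsed in 0.5% phosphoric acid and counted in a scintillation detector. Half-maximal inhibition of label transfer defines IC50.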

[4] = target: T4, EGFR (Homo sapiens, UniProt P00533); assay: Kinase inhibition assay (33P transfer), EGFR; settings: Table 2, class symbols A-E; read-out: EGFR-1
T4 construct: Kinases are expressed as either kinase domains or full length constructs; made in house
T4 sequence (P00533 25-1210, species assumed): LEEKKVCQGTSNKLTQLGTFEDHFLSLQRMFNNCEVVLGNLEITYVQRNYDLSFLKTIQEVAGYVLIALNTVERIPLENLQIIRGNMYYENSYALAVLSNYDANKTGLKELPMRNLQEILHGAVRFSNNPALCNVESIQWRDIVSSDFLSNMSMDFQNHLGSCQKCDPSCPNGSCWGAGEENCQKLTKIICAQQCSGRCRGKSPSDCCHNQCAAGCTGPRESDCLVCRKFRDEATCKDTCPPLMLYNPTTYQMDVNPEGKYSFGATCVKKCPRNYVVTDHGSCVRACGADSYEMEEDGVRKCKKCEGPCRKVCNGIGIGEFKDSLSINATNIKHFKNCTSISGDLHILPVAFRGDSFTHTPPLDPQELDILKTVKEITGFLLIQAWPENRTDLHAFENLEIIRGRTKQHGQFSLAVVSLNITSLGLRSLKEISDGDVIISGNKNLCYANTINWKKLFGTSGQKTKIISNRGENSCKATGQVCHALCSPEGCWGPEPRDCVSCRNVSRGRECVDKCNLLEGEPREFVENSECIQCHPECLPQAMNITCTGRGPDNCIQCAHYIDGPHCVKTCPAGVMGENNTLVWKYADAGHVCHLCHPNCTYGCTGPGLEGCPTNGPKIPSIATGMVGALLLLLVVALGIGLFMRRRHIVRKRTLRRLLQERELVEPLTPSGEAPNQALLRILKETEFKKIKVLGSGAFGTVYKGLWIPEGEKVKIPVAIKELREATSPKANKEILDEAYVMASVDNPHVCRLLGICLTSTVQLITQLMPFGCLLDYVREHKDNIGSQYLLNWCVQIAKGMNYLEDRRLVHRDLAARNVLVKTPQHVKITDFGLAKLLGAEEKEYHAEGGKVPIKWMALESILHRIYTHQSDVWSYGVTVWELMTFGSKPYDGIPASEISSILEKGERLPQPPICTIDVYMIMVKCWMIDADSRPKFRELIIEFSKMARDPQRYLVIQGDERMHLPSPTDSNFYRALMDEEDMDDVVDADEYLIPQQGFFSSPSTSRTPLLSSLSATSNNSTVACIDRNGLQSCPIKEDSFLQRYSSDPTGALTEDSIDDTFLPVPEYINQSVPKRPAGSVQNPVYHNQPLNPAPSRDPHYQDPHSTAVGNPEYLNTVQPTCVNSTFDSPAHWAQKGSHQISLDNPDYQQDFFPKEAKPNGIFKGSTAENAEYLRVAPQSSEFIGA
Method in brief: as §2

[5] = target: T5, ErbB2 (Homo sapiens, UniProt P04626); assay: Kinase inhibition assay (33P transfer), ErbB2; settings: read-out: ErbB2-2
T5 construct: Kinases are expressed as either kinase domains or full length constructs; made in house
Method in brief: as §2

[6] = target: T6, Kdr (Homo sapiens, UniProt P35968); assay: Kinase inhibition assay (33P transfer), Kdr; settings: Table 3, class symbols; read-out: KDR-1
T6 construct: Kinases are expressed as either kinase domains or full length constructs; made in house
T6 sequence (P35968 20-1356, species assumed): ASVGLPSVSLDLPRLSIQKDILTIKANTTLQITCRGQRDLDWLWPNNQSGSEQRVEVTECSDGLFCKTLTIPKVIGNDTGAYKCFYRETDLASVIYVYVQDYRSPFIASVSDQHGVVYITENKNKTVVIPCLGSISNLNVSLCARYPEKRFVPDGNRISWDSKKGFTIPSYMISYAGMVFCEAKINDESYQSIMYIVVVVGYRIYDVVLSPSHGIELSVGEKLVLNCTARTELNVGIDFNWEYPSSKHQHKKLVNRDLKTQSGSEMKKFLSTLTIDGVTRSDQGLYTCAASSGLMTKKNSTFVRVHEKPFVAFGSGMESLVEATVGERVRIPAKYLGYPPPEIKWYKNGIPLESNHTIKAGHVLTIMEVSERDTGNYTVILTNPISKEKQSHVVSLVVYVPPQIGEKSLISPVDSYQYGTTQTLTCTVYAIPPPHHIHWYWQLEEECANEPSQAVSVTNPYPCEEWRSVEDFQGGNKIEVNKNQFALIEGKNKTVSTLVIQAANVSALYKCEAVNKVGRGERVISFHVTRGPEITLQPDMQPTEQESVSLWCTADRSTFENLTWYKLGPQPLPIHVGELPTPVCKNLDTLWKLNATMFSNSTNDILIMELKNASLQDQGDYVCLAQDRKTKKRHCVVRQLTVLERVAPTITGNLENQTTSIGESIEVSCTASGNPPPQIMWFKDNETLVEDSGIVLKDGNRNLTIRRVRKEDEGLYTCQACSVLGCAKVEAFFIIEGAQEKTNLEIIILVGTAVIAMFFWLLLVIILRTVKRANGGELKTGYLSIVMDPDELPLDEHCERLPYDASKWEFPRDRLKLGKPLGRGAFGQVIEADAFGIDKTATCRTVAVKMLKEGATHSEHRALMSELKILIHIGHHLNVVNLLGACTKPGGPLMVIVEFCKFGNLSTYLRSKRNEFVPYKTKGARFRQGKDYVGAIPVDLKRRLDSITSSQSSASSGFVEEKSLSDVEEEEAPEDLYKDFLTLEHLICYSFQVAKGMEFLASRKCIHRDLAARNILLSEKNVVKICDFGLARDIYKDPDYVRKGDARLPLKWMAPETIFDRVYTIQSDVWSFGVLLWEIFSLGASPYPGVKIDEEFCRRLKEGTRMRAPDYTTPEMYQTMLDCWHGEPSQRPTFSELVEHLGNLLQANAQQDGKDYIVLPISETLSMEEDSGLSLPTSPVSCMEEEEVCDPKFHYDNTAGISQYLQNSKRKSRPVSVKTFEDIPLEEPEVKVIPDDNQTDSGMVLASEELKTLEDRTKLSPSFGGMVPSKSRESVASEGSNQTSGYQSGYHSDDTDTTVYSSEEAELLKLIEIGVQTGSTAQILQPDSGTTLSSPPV
Method in brief: as §1

[7] = target: T7, c-Met (Homo sapiens, UniProt P08581); assay: Kinase inhibition assay (33P transfer), c-Met; settings: Table 2, class symbols A-E; read-out: Met-1
T7 construct: Kinases are expressed as either kinase domains or full length constructs; made in house
T7 sequence (P08581 25-1390): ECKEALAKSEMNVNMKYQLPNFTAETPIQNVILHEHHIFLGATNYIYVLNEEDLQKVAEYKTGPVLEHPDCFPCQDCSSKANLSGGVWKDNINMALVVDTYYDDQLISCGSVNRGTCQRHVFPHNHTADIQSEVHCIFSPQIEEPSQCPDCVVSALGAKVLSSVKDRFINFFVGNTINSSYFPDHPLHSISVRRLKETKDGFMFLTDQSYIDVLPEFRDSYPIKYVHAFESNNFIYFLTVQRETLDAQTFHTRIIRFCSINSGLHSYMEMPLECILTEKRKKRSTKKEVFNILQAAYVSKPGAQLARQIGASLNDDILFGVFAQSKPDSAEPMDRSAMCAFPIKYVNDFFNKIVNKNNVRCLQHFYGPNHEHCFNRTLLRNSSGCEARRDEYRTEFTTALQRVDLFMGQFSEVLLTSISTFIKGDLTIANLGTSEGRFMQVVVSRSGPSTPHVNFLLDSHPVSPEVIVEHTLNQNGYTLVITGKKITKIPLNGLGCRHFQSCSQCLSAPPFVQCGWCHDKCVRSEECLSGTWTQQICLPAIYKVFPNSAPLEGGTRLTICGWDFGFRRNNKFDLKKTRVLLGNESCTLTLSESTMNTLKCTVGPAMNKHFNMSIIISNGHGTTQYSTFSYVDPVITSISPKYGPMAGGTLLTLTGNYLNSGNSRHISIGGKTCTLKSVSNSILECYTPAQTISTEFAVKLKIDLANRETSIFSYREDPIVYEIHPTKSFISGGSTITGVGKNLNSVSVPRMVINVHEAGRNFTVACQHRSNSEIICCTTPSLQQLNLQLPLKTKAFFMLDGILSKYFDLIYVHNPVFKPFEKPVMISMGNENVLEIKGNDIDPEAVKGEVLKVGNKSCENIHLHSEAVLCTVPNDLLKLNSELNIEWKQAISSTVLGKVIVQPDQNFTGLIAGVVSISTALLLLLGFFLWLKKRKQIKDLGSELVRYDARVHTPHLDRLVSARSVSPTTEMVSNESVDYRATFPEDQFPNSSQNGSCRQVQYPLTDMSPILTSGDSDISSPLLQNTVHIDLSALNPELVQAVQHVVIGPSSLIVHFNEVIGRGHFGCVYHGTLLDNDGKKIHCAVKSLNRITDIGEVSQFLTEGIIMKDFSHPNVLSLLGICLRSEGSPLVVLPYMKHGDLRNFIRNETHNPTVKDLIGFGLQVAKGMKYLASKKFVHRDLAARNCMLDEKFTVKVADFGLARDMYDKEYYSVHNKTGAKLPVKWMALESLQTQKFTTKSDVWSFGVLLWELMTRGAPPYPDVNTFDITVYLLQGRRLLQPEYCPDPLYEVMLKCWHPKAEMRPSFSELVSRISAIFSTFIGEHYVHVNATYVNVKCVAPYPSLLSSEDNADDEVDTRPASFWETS
Method in brief: as §2

[8] = target: T8, AKT (Homo sapiens, UniProt Q9Y243); assay: Kinase inhibition assay (33P transfer), AKT; settings: Table 2, class symbols A-E; read-out: AKT3-1
T8 construct: Kinases are expressed as either kinase domains or full length constructs; made in house
Method in brief: as §1

[9] = target: T9, IGFR-1 (Homo sapiens, UniProt P08069); assay: Kinase inhibition assay (33P transfer), IGFR-1; settings: Table 2, class symbols A-E
T9 construct: Kinases are expressed as either kinase domains or full length constructs; made in house

[10] = target: T10, PDGFRB (Homo sapiens, UniProt P09619); assay: Kinase inhibition assay (33P transfer), PDGFRB; settings: read-out: PDGFRB-1
T10 construct: Kinases are expressed as either kinase domains or full length constructs; made in house
T10 sequence (P09619 33-1106, species assumed): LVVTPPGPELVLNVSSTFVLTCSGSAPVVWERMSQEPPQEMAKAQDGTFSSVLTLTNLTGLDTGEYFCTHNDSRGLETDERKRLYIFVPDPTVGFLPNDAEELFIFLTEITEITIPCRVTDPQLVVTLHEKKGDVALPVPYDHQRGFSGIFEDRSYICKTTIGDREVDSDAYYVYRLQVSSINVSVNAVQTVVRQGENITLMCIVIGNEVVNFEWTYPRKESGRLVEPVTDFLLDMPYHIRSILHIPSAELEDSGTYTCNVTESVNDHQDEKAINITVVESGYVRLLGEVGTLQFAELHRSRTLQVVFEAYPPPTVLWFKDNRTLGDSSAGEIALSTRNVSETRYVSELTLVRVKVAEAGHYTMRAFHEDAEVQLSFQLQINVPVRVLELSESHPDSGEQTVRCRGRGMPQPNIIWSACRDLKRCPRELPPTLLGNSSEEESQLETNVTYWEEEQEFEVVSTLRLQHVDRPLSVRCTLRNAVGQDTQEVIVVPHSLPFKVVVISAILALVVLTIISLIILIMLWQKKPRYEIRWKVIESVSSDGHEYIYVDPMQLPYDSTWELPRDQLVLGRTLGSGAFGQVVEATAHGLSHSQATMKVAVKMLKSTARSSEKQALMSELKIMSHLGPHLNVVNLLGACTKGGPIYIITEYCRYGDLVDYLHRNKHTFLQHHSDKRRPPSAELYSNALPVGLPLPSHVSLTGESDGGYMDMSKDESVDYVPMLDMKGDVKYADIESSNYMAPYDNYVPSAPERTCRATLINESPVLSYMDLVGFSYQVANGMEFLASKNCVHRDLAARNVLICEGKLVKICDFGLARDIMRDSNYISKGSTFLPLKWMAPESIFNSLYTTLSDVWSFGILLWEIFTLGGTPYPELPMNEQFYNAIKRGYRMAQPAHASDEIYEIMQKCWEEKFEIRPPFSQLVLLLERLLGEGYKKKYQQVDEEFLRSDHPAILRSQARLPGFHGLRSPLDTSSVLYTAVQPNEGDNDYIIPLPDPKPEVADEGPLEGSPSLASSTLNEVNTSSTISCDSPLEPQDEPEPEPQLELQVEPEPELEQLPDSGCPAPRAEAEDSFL

Structure (SMILES)	pIC50 [1]	pIC50 [2]	pIC50 [3]	pIC50 [4]	pIC50 [5]	pIC50 [6]	pIC50 [7]	pIC50 [8]	pIC50 [9]	pIC50 [10]
COC(=O)c1ccc(-c2cc(Nc3ncnc(Nc4cccc(Cc5nnn[nH]5)c4)n3)[nH]n2)cc1 [Compound 991]	5.13 to 5.29	5.02 to 5.13	5.13 to 5.29	5.29 to 6.07	5.29 to 6.07	5.13 to 5.29	> 6.07	5.13 to 5.29	5.29 to 6.07	5.29 to 6.07
CCOC(=O)c1cccc(Nc2ncnc(Nc3cc(-c4ccc(C(=O)OC)cc4)n[nH]3)n2)c1 [Compound 813]	< 5.01	< 5.01	5.28 to 6.06	< 5.01	< 5.01	< 5.01	< 5.01	< 5.01	< 5.01	5.28 to 6.06
CCOc1cccc(Nc2ncnc(N3CCCc4cc(C)ccc43)n2)c1 [Compound 892]	5.18 to 5.96	< 4.90	4.90 to 5.01	> 5.96	5.18 to 5.96	5.18 to 5.96	5.18 to 5.96	< 4.90	< 4.90	> 5.96
COc1ccc(Nc2ncnc(N(C)c3ccc(C)cc3)n2)cc1OC [Compound 799]	5.17 to 5.94	< 4.89	< 4.89	> 5.94	5.17 to 5.94	5.17 to 5.94	5.17 to 5.94	< 4.89	5.17 to 5.94	5.17 to 5.94
COc1ccc(Nc2ncnc(N(C)c3ccc(F)cc3F)n2)cc1OC [Compound 801]	5.19 to 5.97	< 4.92	< 4.92	> 5.97	4.92 to 5.03	5.03 to 5.19	5.19 to 5.97	< 4.92	< 4.92	5.19 to 5.97
COc1ccc(Nc2ncnc(Nc3ccc4c(c3)CCC4)n2)cc1OC [Compound 896]	< 4.91	< 4.91	5.02 to 5.18	5.18 to 5.96	5.18 to 5.96	5.02 to 5.18	5.18 to 5.96	5.02 to 5.18	5.18 to 5.96	> 5.96
c1ccc(Cn2ncc3cc(Nc4ncnc(NCCN5CCCC5)n4)ccc32)cc1 [Compound 871]	< 4.96	< 4.96	5.07 to 5.24	< 4.96	< 4.96	< 4.96	< 4.96	< 4.96	< 4.96	4.96 to 5.07
CNS(=O)(=O)Cc1ccc(Nc2ncnc(Nc3cc(-c4ccc(C(=O)OC)cc4)n[nH]3)n2)cc1 [Compound 883]	< 5.04	< 5.04	< 5.04	5.15 to 5.31	< 5.04	< 5.04	> 6.09	< 5.04	5.15 to 5.31	5.15 to 5.31
Cc1ccc(Cl)cc1Nc1ncnc(N2c3ccc(F)cc3CCC2C)n1 (stereo not shown) [Compound 644]	< 4.93	< 4.93	4.93 to 5.04	5.20 to 5.98	< 4.93	5.20 to 5.98	5.20 to 5.98	< 4.93	< 4.93	5.20 to 5.98
OCc1cccc(Nc2ncnc(-c3cccnc3NCc3ccccc3)n2)c1 [Compound 1103]	5.20 to 5.98	4.93 to 5.04	< 4.93	5.20 to 5.98	4.93 to 5.04	> 5.98	< 4.93	4.93 to 5.04	< 4.93	> 5.98
